The subject of assay [1] is human macrophages. The experiment in a line: Viability of payload-treated human macrophages (Calcein AM / Ethidium Homodimer-1). To be noted: free payload; 48-hour incubation; calcein-positive, Ethidium Homodimer-1 negative cells. It is filed as cell-based. As for the experimental part: Macrophage differentiation from CD14+ monocytes: Human peripheral blood mononuclear cells (PBMCs) were isolated from blood donors, who provided informed consent, using density gradient centrifugation. Monocytes were then purified from PBMCs utilizing a CD14 selection kit (Stemcell) according to the manufacturer's instructions. The isolated monocytes were differentiated into macrophages by culturing in RPMI 1640 medium supplemented with 10% FBS and 100 ng/mL macrophage colony-stimulating factor (M-CSF) for 5 days.
Viability assay with Calcein AM: To prepare the viability assay with Calcein AM for flow cytometry, 5 μL of Calcein AM (Component A) and 20 μL of Ethidium Homodimer-1 (Component B) was added to 10 mL of DPBS. Cells were centrifuged at 450×G for 5 minutes to remove the culture medium, and 100-200 μL of the staining solution was added directly to the cells and incubated for 30 minutes at room temperature (20-25° C.). After the incubation, cells were centrifuged at 450×G for 5 minutes to remove the supernatant, and resuspended in 150 μL of DPBS. Cells were analyzed by flow cytometry.

For assay [2], the system named is osteoclast differentiation. Briefly: Osteoclast differentiation in vitro (TRACP 5b in culture medium). As to conditions: relative to baseline levels; culture medium at day 7 (FIG. 46). The assay is classed as cell-based.

Where a SMILES comes first, the peptide text is derived from it. [ ]: non-standard residue; d: D form. The star is where a group is joined. Dolaproine = CO[C@@H]([C@@H]1CCCN1)[C@@H](C)C(=O)O; Dil = CC[C@H](C)[C@H](NC)[C@@H](CC(=O)O)OC; X1 = C[C@@H](N*)[C@@H](O)c1ccccc1; NMeV = CN[C@H](C(=O)O)C(C)C

Regarding `CC[C@H](C)[C@@H]([C@@H](CC(=O)N1CCC[C@H]1[C@H](OC)[C@@H](C)C(=O)N[C@H](C)[C@@H](O)c1ccccc1)OC)N(C)C(=O)[C@@H](NC(=O)[C@@H](NC)C(C)C)C(C)C` [MMAE, monomethylauristatin E] (H-[NMeV]V[Dil][Dolaproine]-X1), the “loss of cell viability of human macrophages” value in assay [1] was “at a lower concentration than Exatecan”.
In the case of “denosumab: control that reduced osteoclast differentiation [reference compound]”, the “effect on osteoclast differentiation (TRACP 5b)” value in assay [2] was “reduced differentiation”.

The record behind these values is patent US20250361297A1, “ANTI- SIGLEC-15 BINDING MOLECULES AND METHODS OF USE” (ADAPTAM THERAPEUTICS, S.L., priority 2024, published 2025).
